Data from ChEMBL document CHEMBL5223078, “Proteases and Their Modulators in Cancer Therapy: Challenges and Opportunities” (J Med Chem, 2021).

Tests used:
SUM-159-PT [1] = assay: Cytotoxicity against human SUM159PT cells assessed as cell growth inhibition measured after 72 hrs by MTS assay; format: functional, cell-based
MDA-MB-231 [2] = assay: Antitumor activity against human MDA-MB-231 cells xenografted in mouse model assessed as reduction in ERRalpha level in mouse heart at 100 mg/kg, ip administered 3 times a day relative to control; format: functional; design: scale not given: the % may be the effect or the level left
MDA-MB-231 [3] = assay: Antitumor activity against human MDA-MB-231 cells xenografted in mouse model assessed as reduction in ERRalpha level in mouse kidney at 100 mg/kg, ip administered 3 times a day relative to control; format: functional; design: scale not given: the % may be the effect or the level left
MDA-MB-231 [4] = assay: Antitumour activity against human MDA-MB-231 cells xenografted in mouse model assessed as reduction in ERRalpha level of tumor growth at 100 mg/kg, ip administered 3 times a day relative to control; format: functional; design: scale not given: the % may be the effect or the level left
[5] = target: von Hippel-Lindau disease tumor suppressor/GTPase KRas (Homo sapiens, UniProt P01116+P40337); assay: Protac activity at VHL E3 ligase/KRAS G12 degradation in human MDA-MB-231 cells assessed as […] by western blot analysis; format: cell-based
SUM-159-PT [6] = assay: Inhibition of colony formation in human SUM159PT assessed as complete inhibition of cell growth measured after 48 hrs by crystal violet staining based analysis; format: functional
20S proteasome = assay: Inhibition of 20S proteasome (unknown origin); format: protein-complex assay, Homo sapiens
[7] = target: Protein cereblon/Tyrosine-protein kinase BTK (Homo sapiens, UniProt Q06187+Q96SW2, C481S); assay: Protac activity at CRBN (unknown origin)/BTK C481S mutant (unknown origin) assessed as BTK C481S mutant degradation; format: protein assay
[8] = Cytotoxicity against human TEX cells assessed as cell growth inhibition measured after 72 hrs by spectrophotometry; format: functional, cell-based
OCI-AML2 = assay: Cytotoxicity against human OCI-AML2 cells assessed as cell growth inhibition measured after 72 hrs by spectrophotometry; format: functional, cell-based; details: OCI-AML2, 72 h
OCI-AML-3 = assay: Cytotoxicity against human OCI-AML-3 cells assessed as cell growth inhibition measured after 72 hrs by spectrophotometry; format: functional, cell-based; details: OCI-AML-3, 72 h
HCT-116 = assay: Antiproliferative activity against human HCT-116 cells assessed as reduction in cell viability at 200 nm measured after 72 hrs by MTS assay relative to control; format: functional

Sequence of Protein cereblon/Tyrosine-protein kinase BTK (Q06187 2-659 C481S limits assumed, stated change not applied): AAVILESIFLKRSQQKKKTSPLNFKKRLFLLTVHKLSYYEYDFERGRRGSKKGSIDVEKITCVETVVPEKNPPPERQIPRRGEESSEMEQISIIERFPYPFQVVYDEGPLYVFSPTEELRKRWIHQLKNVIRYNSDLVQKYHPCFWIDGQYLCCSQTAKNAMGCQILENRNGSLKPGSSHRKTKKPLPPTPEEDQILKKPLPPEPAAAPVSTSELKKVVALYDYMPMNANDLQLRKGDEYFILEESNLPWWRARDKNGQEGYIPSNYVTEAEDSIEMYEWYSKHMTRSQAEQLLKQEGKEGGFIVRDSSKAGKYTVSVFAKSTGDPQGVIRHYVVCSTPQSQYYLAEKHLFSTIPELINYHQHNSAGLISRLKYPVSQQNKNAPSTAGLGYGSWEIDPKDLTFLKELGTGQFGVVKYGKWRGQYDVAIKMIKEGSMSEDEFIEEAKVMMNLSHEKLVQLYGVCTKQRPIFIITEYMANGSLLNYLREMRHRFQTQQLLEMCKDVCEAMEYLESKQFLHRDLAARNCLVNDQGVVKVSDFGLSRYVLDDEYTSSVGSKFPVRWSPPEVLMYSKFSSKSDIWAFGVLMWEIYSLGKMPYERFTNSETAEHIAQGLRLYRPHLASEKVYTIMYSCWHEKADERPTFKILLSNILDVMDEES
Sequence of Protein cereblon/Tyrosine-protein kinase BTK (Q96SW2 whole entry, stated change not applied): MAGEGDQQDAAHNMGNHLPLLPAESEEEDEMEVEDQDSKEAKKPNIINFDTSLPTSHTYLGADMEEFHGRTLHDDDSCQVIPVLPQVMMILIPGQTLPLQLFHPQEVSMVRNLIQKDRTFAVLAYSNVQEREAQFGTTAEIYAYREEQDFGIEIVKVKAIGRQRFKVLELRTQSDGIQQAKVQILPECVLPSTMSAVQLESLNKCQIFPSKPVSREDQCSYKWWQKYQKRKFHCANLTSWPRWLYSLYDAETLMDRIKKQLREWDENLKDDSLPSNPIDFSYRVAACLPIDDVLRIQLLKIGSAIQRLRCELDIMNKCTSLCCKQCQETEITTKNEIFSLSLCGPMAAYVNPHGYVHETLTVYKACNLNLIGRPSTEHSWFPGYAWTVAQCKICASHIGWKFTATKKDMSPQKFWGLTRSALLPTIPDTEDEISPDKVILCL
Sequence of von Hippel-Lindau disease tumor suppressor/GTPase KRas (P01116 whole entry): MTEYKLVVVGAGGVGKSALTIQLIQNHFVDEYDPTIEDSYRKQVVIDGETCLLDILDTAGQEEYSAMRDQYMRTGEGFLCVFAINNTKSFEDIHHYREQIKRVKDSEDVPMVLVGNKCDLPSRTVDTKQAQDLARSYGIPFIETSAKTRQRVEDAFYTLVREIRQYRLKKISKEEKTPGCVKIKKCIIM
Sequence of von Hippel-Lindau disease tumor suppressor/GTPase KRas (P40337 whole entry): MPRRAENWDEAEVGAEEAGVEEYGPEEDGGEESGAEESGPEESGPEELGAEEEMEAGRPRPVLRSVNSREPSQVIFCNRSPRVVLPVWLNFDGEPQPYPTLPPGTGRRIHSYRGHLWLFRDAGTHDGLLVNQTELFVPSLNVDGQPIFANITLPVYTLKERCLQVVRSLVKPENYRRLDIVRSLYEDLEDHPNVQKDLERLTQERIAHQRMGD

Work on `N#Cc1cccc(CN2CCC3=C(C2)C(=O)N(Cc2ccc(C(F)(F)F)cc2)C2=NCCN23)c1` yielded an IC50 (SUM-159-PT [1]) of 11 nM.
For `COc1cc(/C=C2\SC(=O)N(CCOCCC(=O)N[C@@H](C(=O)N3C[C@H](O)C[C@H]3C(=O)NCc3ccc(-c4scnc4C)cc3)C(C)(C)C)C2=O)ccc1Oc1ccc(C#N)cc1C(F)(F)F`, the Activity (MDA-MB-231 [2]) was 44%, the Activity (MDA-MB-231 [3]) was 44% and the Activity (MDA-MB-231 [4]) was 39%.
Molecule `C=C(F)C(=O)N1CCN(c2nc(OC[C@@H]3CCCN3CCCOCCC(=O)N[C@H](C(=O)N3C[C@H](O)C[C@H]3C(=O)NCc3ccc(-c4scnc4C)cc3)C(C)(C)C)nc3c2CCN(c2cccc4cccc(Cl)c24)C3)C[C@@H]1CC#N` has a DC50 [5] of 250 nM.
Work on `Cn1c2c(c(=O)n(Cc3ccc(Cl)cc3)c1=O)CN(Cc1cccc(C#N)c1)CC2` yielded an IC50 (SUM-159-PT [1]) of 14 nM and an INH (SUM-159-PT [6]) of 30 nM.
With `N#Cc1cccc(CN2CCC3=C(C2)C(=O)N(Cc2ccc(Cl)cc2)C2=NCCN23)c1` the IC50 (SUM-159-PT [1]) was 7.4 nM.
For `CCCC[C@@H](C=O)NC(=O)[C@H](CC(C)C)NC(=O)[C@@H](CC(C)C)NC(=O)CC`, the IC50 (20S proteasome) was 90 nM.
In the case of `Cc1cccc(CN2CCc3c(c(=O)n(Cc4ccc(C(F)(F)F)cc4)c(=O)n3CCCN)C2)c1`, the IC50 (SUM-159-PT [1]) is reported as 57 nM.
Work on `CC[C@H]1C(=O)NC2([C@@H](O)[C@@H]3C=CCCC3)C(=O)O[C@@H]12` (stereo partly drawn) yielded an IC50 (20S proteasome) of 90 nM.
`Nc1ncnc2c1c(-c1ccc(Oc3ccccc3)cc1)nn2[C@@H]1CCCN(C(=O)c2cn(CCOCCOCCOCCCc3cccc4c3C(=O)N(C3CCC(=O)NC3=O)C4=O)nn2)C1` (stereo partly drawn) gave a DC50 [7] of 50 nM.
With `C#Cc1cccc(CN2CCC3=C(C2)C(=O)N(Cc2ccc(C)cc2)C2=NCCN23)c1` the IC50 (SUM-159-PT [1]) was 100 nM.
For `O=C1C2=C(CCN(Cc3ccccc3)C2)N2CCN=C2N1Cc1ccc(C(F)(F)F)cc1`, the IC50 [8] was 71 nM, the IC50 (OCI-AML2) was 76 nM and the IC50 (OCI-AML-3) was 60 nM. The IC50 (SUM-159-PT [1]) was 77 nM and the Activity (HCT-116) was 10%.
